The values that follow come from patent publication US10022380B2, “Treatment of solid tumours” (Vivolux AB, priority 2012, dated 2018).

The subject of series [1] is HCT116 MCS. The experiment in a line: Pimonidazole staining of sectioned spheroids (indirect measure of respiration/hypoxia). Format: cell-based.
Protocol: (§1) HCT116 colon carcinoma cells were maintained in McCoy's 5A modified medium/10% fetal calf serum at 37° C. in 5% CO2. […] A cell suspension containing 10,000 cells (200 μl) was added to each well of poly-HEMA coated 96 well plates. The wells were then overfilled by adding an additional 170 μl media to acquire a convex surface curvature. Plasticine spacers (3 mm) were placed in the corners of each plate to prevent the lids from touching the media. The plates were then inverted in order to allow the cells to sediment to the liquid/air interface and incubated in gentle shaking. After 24 hrs incubation the plates were returned to normal. First excess media was removed by aspiration and then plasticine spacers. The plates were incubated for 4 days prior to drug treatment.
MCS produced by the hanging drop method in 96 well plates were fixed in paraformaldehyde, dehydrated, embedded in paraffin and sectioned. Each sample contained 32 MCS (MCS from each 96 well plate were pooled into 3 groups). The sections were deparaffinized with xylene, rehydrated and microwaved, and then incubated overnight with the monoclonal primary antibodies diluted in 1% (weight/volume) bovine serum albumin and visualized by standard avidin-biotin-peroxidase complex technique (Vector Laboratories, Burlingame, Calif., USA). Counterstaining was performed with Mayer's haematoxylin. […]
In series [2] the test system is monolayer HCT116 cells. The experiment in a line: Proliferation / viability of monolayer HCT116 cells.
Protocol: HCT116 MCS were treated for 6 hours with 6 μM CB21, followed by changing to drug-free medium and further incubation. MCS were sectioned and stained for active caspase-3. […] Cells were incubated for 30 minutes with EdU, fixed and analyzed by ArrayScan. […] Cells were seeded at 7,000 or 70,000 per well in 96 well plates in the presence or absence of CB21.
Cells were fixed and stained for LC3 after drug treatment at the times indicated. […] Cells were treated with 6 μM CB21 and/or 10 μM bafilomycin A and cells were photographed at the times Indicated. […] HCT116 cells were treated with 6 μM CB21 and/or 10 μM chloroquine. Cell proliferation was monitored by calculation of culture confluency.
HCT116 colon carcinoma cells were maintained in McCoy's 5A modified medium/10% fetal calf serum at 37° C. in 5% CO2. MCS were prepared using a modification of our previously described method (12). A cell suspension containing 10,000 cells (200 μl) was added to each well of poly-HEMA coated 96 well plates. The wells were then overfilled by adding an additional 170 μl media to acquire a convex surface curvature. […] Caspase cleaved keratin-18 (K18-Asp396) was determined using 25 mL medium/extract using the M30 CytoDeath ELISA assay (a variant of the M30-Apoptosense® ELISA (13) developed for in-vitro use (Peviva AB, Bromma, Sweden)). […]
In series [3] the test system is HCT116 MCS. Format: cell-based.
Protocol: Cell viability was determined using the acid phosphatase test.
as §1
Viability measurements were performed by the acid phosphatase (APH) method described by Friedrich et al. (14). Background activity was subtracted.
The subject of series [4] is LC3-I and LC3-II. Description: LC3-I / LC3-II induction in HCT116 (western blot, LC3 staining). Format: cell-based. Particulars: for Induction of LC3-I and LC3-II: HCT116 cells. How it is done: FIG. 4B: Staining of CB21-treated cells with an antibody to LC3. […] Cells were treated for 6 hours (6 μM), and then incubated further. Protein were extracted and subjected to western blot analysis. […] FIGS. 4F-4H: Morphology of peripheral and core cells visualized by electron microscopy. MCS were treated for 6 hours with 6 μM C21 and incubated further in drug-free medium for the times indicated and sectioned.
MCSs contain mostly non-proliferating cells. […] The mechanism(s) of action was studied in more detail. […] LC3-II (the PE-conjugated form of LC3) is a protein marker regarded to be most reliably associated with autophagosomes (19).
In general terms: A western blot detects proteins with antibodies after separation by electrophoresis.

Series [5] has as its system mTOR substrate 4EBP1. The experiment in a line: Phosphorylation of mTOR substrate 4EBP1 and of AKT (western blot). The following applies: HCT116 cells.
Protocol: Cell extract proteins were resolved by Tris-Acetate PAGE gels (Invitrogen, Carlsbad, Calif.) and transferred onto a polyvinylidene difluoride (PVDF) membrane. The membranes were incubated overnight with antibodies, washed and incubated with HRP-conjugated anti-rabbit Ig (Amersham Biosciences, Little Chalfont, UK) for 1 h. Peroxidase activity was developed by SuperSignal West Pico (Pierce Biotechnology, Rockford, Ill.) according to manufacturer's instructions.

Each structure is given as a SMILES string.

Take `N#CC(C#N)=NNc1cccc(Cl)c1` [CCCP, carbonylcyanide-3-chlorophenylhydrazone]: the “Pimonidazole positive area (%)” value in series [1] (10 μM, 6 h) amounted to 79.9%.
Regarding `CCN(CC)CCCC(C)Nc1ccnc2cc(Cl)ccc12` (stereo not drawn) [CQ, Chloroquine], in series [2] (10 μM chloroquine, 6 μM CB21, culture confluency), the “proliferation / cell death of monolayer HCT116 cells” value is “no effect”.
Take `Cn1c(=O)n(-c2ccc(C(C)(C)C#N)cc2)c2c3cc(-c4cnc5ccccc5c4)ccc3ncc21` [NVP-BEZ235]: the “viability of the cells in the core of the MCS” value in series [3] was “did not affect the viability”. Besides, the “Induction of LC3-I and LC3-II” value is reported as “weak induction” in series [4] (6 h) and “no induction observed” in series [4] (24 h). Also, the 4EBP1 phosphorylation entry in series [5] is listed as “decrease”.
Consider `CO[C@H]1C[C@@H]2CC[C@@H](C)[C@@](O)(O2)C(=O)C(=O)N2CCCC[C@H]2C(=O)O[C@H]([C@H](C)C[C@@H]2CC[C@@H](O)[C@H](OC)C2)CC(=O)[C@H](C)/C=C(\C)[C@@H](O)[C@@H](OC)C(=O)[C@H](C)C[C@H](C)/C=C/C=C/C=C/1C` [Rapamycin], for which, in series [1] (10 nM, 5 h), the “Pimonidazole positive area (%)” value was found to be 42.2%.
For the compound `CO/C1=C\C(C)=C\[C@@H](C)[C@@H](O)[C@@H](C)C/C(C)=C/C=C/[C@H](OC)[C@@H]([C@@H](C)[C@@H](O)[C@H](C)[C@@]2(O)C[C@@H](O)[C@H](C)[C@@H](C(C)C)O2)OC1=O` [bafilomycin A], the “time at which cytotoxicity was observed” value in series [2] (HCT116, 10 μM bafilomycin A, 6 μM CB21) was about 72 h. Besides, the “appearance of large cytoplasmic LC3-II positive vesicles” value in series [4] (HCT116 cells treated with CB21, 10 μM Bafilomycin A) was “suppresses the appearance of large cytoplasmic LC3-II positive vesicles”.
